# Laboratory results published in patent US5532225A, “Acyclic purine phosphonate nucleotide analogs as antiviral agents, and related synthetic methods” (SRI International, priority 1992, dated 1996).
# Experiments:
# human cytomegalovirus = assay: in vitro antiviral evaluation (cytotoxicity and viral cytopathic effect, CPE) in MRC-5 cells; assay type: cell-based; conditions: racemate approximately 50:50 (w/w) of 1-9 and 2-9
# Protocol: The compounds prepared in Examples 1 and 2 were evaluated in vitro as antiviral agents against human cytomegalovirus.
# One herpes virus strain employed was Strain McCrae of type 1 herpes (thymidine kinase positive virus) (HSV-1TK^+). This strain was prepared and titered in MA-104 cells and frozen at -90° C. until use. Also used were strain HF (HSV-1TK^-), strain E194 (HSV-2), NJB strain (MCMV), and strain AD169 (HCMV).
# Continuous passaged MRC-5 cells obtained from the American Type Culture Collection (Bethesda, Md.) were used for testing of herpes-type virus, with growth medium consisting of Minimum Essential Medium (MEM) supplemented with 0.1% NaHCO3 and […] gentamicin.
# To a 96 well microtiter plate containing an established 24 hour monolayer of cells from which the medium has been decanted was added 0.1 mL of varying (one-half log10) concentrations of test compound, which incubated on the cell 15 minutes, after which 0.1 mL of virus in a concentration of 320 cell culture 50% infectious doses (CCID50)/0.1 mL was added. The plate was covered with plastic wrap and incubated at 37° C. The cells were examined microscopically after 72 hours for evidence of cytotoxicity and for viral cytopathic effect (CPE).
# several herpes viruses = assay: activity of isolated enantiomer against several herpes viruses (general statement); assay type: cell-based
smiles,measurement,setting,value
"Nc1nc2c(ncn2CO[C@@H](CO)CCP(=O)(O)O)c(=O)[nH]1 [Compound 2-9, 9-[(R(-)-1-Hydroxymethyl-3-phosphono)-propyl-oxymethyl]guanine]",share of the antiviral activity of the racemate due to the enantiomer (conclusion in words),human cytomegalovirus,majority of the antiviral activity of the racemate is due to the (R) enantiomer
same,activity against several herpes viruses (in words),several herpes viruses,significant activity against several herpes viruses
